The values that follow come from patent US20260209152A1, “Substituted Hydroxystilbene Compounds and Derivatives, Synthesis and Uses Thereof” (Kynan Duke IP, LLC, priority 2019, published 2026).

SMILES strings stand for the structures. Read-outs that look alike come from different tables or passages of the source.

The subject of data set [1] is CCL2 release from IL-4, IL-13, IL-22 and IFN-γ-stimulated primary human keratinocytes. Briefly: Keratinocyte CCL2 release (LEO Pharma Open Innovation assay number 1280). The format is cell-based. Conditions: for EC50 / Emax: Homo sapiens, Keratinocyte; for Max Eff.: CCL2 (1280): highest effect as percentage of control maximum effect; for Emax: read-out: maximum efficacy, CCL2 secretion. The method, then:
Inhibition of CCL2 release from IL-4, IL-13, IL-22 and IFN-γ-stimulated primary human keratinocytes LEO Pharma Open Innovation assay number 1280
The inflammatory skin disease atopic dermatitis (AD) is characterized by the T-cell cytokines including IL-4, IL-13, IL-22 and IFN-γ. In the present assay, keratinocytes are stimulated with a mixture of these cytokines, and the release of CCL2 (also called monocyte chemoattractant protein 1 (MCP-1)) is measured in the culture supernatant by proximity homogenous time-resolved fluorescence (HTRF). […] Compound which inhibit keratinocyte CCL2 secretion may be expected to have efficacy in atopic dermatitis.
HEKa are human epidermal keratinocytes isolated from adult skin. The cells have been cryopreserved at the end of the primary culture stage in a medium containing 10% DMSO. Sterile cell culture work applies.
• Trypsinize the cells as described above. • Resuspend pellet in 10 ml assay medium (EpiLife Medium with HKGS Kit but without hydrocortisone) • Filter the cells though a 37 µm strainer. • Count cells using a cell counter. • Seed HEKa cells in 384-well view plates 3500 c/w/40 μL. • Place the plates with lids on in a humidity chamber with lid (24.5×24.5 cm box added H2O in the bottom). • Incubate plates over night at 37° C., 5% CO2/95% air
• Prepare compound-containing source plate, i.e. titrations in DMSO to be transferred to the assay plate. • Add 80 nL compounds and controls from the source plate to the assay plate (with cells). • Add 40 μL stimulation (recombinant human interleukin (IL) 4, 13, 22 at 10 ng/mL and Interferon-gamma at 1 ng/mL) in medium with supplement, but without hydrocortisone. • Incubate plates at 37° C., 5% CO2/95% air for 2 days.
• Remove plates from incubation and equilibrate to room temperature for 30 minutes. • Transfer […] supernatant to white proxi 384-well plates for CCL2 detection. • Add […] media to the detection plate. • Add […] CCL2 HTRF detection reagent (to the white proxi 384w). • Seal and incubate for 4 hours and read in a plate reader.
CCL2 concentration in the supernatants is measured using homogeneous time-resolved fluorescence resonance (TR-FRET). The assay is quantified by measuring fluorescence at 665 nm (proportional to CCL2 concentration) and 620 nm (control). A ratio 665/620*1000 is calculated.

Data set [2] is described as follows: Cell viability in PBMC IL-17 assay (assay number 1322). Conditions: human. The format is cell-based, human. The method, then: (§1) The inflammatory skin disease psoriasis is characterized by cytokines IL-17A and TNFα. In the present assay, human peripheral blood mononuclear cells (PBMC) are stimulated with beads coated with antibodies against CD3 and CD28 to activate the T-cell receptor, and stimulated with IL-23 to promote T-helper17 activity. The cells are incubated for three days, then the secreted level of IL-17A is measured in the culture supernatant using AlphaLISA and the amount of living cells is measured by addition of resazurin (PrestoBlue®) to identify compounds that inhibit cell proliferation or viability. […] Compounds which inhibit IL-17A secretion may be expected to have efficacy in psoriasis.
(§2) • IL-17A concentration in the supernatants is measured using an alphaLISA kit (Perkin Elmer, cat no. AL219F). • Pretest to find optima dilution of samples: Test 5 μL supernatant from control wells and run IL-17A alphaLISA assay with only 2 hours of incubation. • When data are available, remove assay plates from incubation and equilibrate to room temperature for 30 minutes. • Transfer 5 μL or corrected amounts of supernatant to a 384-proxy plate • Add 5 μL alphaLISA acceptor beads. • Incubate 1 hour at room temperature • Add 5 μL donor beads • Incubate overnight at room temperature protected from light. • Add 7 μL PrestoBlue reagent (resazurin)/well to the assay plate and incubated for 2-4 hours at 37° C./5% CO2. The fluorescence in the wells is measured (Ex615/Em 535).
(§3) The level of living cells in the wells is measured by the addition of PrestoBlue® and the conversion of Resazurin to Resorufin (fluorescent) in living cells is measured.
(§4) The effect of the test compounds on viability/proliferation is normalized to the PrestoBlue signal in the negative control wells treated with a toxic compound, Terfenadine.

The subject of a further data set is human PBMC. Described as above. Type of data set: cell-based. Conditions: Homo sapiens. The method, then:
as §1, §2, §3, §4

Data set [3] is described as follows: Cell viability in T-cell IL-2 & IL-4 assay (assay number 1299). Type of data set: cell-based, human. The note with it: human, human CD4-positive T-cells. The method, then:
(§5) Then the level of secreted of IL-4 is measured in the culture supernatant using electrochemiluminescence (MSD kits, Meso Scale Discovery), IL-2 is measured by proximity homogenous time-resolved fluorescence (HTRF) and the amount of living cells is measured by addition of resazurin (PrestoBlue®) to allow identifying compounds that inhibit T-cell proliferation or viability.
(§6) • Remove plates from incubation and equilibrate to room temperature for 30 minutes. • IL-4 concentration in 10 μL supernatant is measured using an MSD IL-4 384-plate kit (Custom made) according to manufacturer protocol. • IL-2 concentrations in the supernatant is measured by an IL-2 HTRF kit, CisBio, cat. No 62HIL02PEH. • Add 4 μL medium to white proxi 384-well plates • Add 1 μL supernatant. • Add 4 μL mHTRF mix (each diluted 1:300 in ⅔ reconstitution buffer and ⅓ assay medium). • Spin the plates for 1 minute at 170 g • Seal and incubate overnight and read fluorescence in a plate reader • The amount of viable cells is measured by PrestoBlue® reagent • Add 15 μL diluted PrestoBlue® reagent (resazurin) corresponding to 2.5 μL Prestoblue/well to the assay plate. • Incubate overnight at 37° C./5% CO2. The fluorescence in the wells is measured (Ex615/Em 535).
as §3, §4

For data set [4], the system named is human CD4-positive T-cells. Described as above. Type of data set: cell-based. The note with it: Homo sapiens, CD4 positive. The method, then: as §5, §6, §3, §4
[5] abbreviates: half maximal effective concentration relative to control, inhibition of CCL2 release, keratinocytes, read-out: Abs EC50: CCL2 (1280).
Setting [6] is: maximum reduction of cell viability in PBMC IL-17 assay, read-out: Max Eff.: Viab (1322).
Setting [7] is: cell viability in PBMC IL-17 assay, read-out: Abs EC50: Viab (1322).
Where [8] appears, read: maximum reduction of cell viability in T-cell IL-2 & IL-4 assay, read-out: Max Eff.: Viab (1299).
[9] abbreviates: cell viability in T-cell IL-2 & IL-4 assay, read-out: Abs EC50: Viab (1299).
Setting [10] is: read-out: EC50, inhibition of keratinocyte CCL2 secretion.
Where [11] appears, read: T-cell IL-2 & IL-4 assay, read-out: maximum reduction of cell viability.
Setting [12] is: T-cell IL-2 & IL-4 assay, read-out: EC50, cell viability.

With `COc1cc(/C=C/c2cc(O)cc(OC)c2CC=C(C)C)ccc1NC(=O)CN` [Compound 31, (E)-2-amino-N-(4-(5-hydroxy-3-methoxy-2-(3-methylbut-2-en-1-yl)styryl)-2-methoxyphenyl)acetamide], the EC50 in data set [1] (setting [5]) came to 445 nM; with human PBMC (setting [7]), 5000 nM; in data set [4] (setting [9]), 5000 nM. For the same molecule, in data set [1], the “Max Eff.: CCL2 (1280)” value is given as 100%. In data set [2] (setting [6]), the cytotoxicity at 3 days amounted to 32%. Also, in data set [3] (setting [8]), the cytotoxicity came out at 19%.
With `COc1cc(/C=C/c2cc(O)cc(OC)c2CC=C(C)C)ccc1O` [Compound 1, (E)-3-(4-hydroxy-3-methoxystyryl)-5-methoxy-4-(3-methylbut-2-en-1-yl)phenol], the EC50 in data set [1] (setting [5]) came to 123 nM; with human PBMC (setting [7]) it was 5000 nM; in data set [4] (setting [9]) it was 5000 nM. The “Max Eff.: CCL2 (1280)” value in data set [1] is 101%. Also, the cytotoxicity at 3 days in data set [2] (setting [6]) was found to be 50%. In addition, in data set [3] (setting [8]), the cytotoxicity was 35%.
As to `CCOc1cc(O)cc(/C=C/c2ccc(NC(=O)C(=O)O)c(OC)c2)c1CC=C(C)C` [Compound 35, (E)-2-((4-(3-Ethoxy-5-hydroxy-2-(3-methylbut-2-en-1-yl)styryl)-2-methoxyphenyl)amino)-2-oxoacetic acid], the EC50 in data set [1] (setting [5]) was 1130 nM; in the data set with human PBMC (setting [7]), 5000 nM; in data set [4] (setting [9]), 5000 nM. In addition, the “Max Eff.: CCL2 (1280)” value in data set [1] is recorded as 79%. Further, in data set [2] (setting [6]), the cytotoxicity at 3 days was determined as 18%. Besides, in data set [3] (setting [8]), the cytotoxicity stood at 7%.
`CCOc1cc(O)cc(/C=C/c2ccc(O)c(O)c2)c1CC=C(C)C` [Compound 20, (E)-4-(3-Ethoxy-5-hydroxy-2-(3-methylbut-2-en-1-yl)styryl)benzene-1,2-diol]: the EC50 worked out at 108 nM in data set [1] (setting [5]), 5000 nM with human PBMC (setting [7]) and 5000 nM in data set [4] (setting [9]). Also, the “Max Eff.: CCL2 (1280)” value in data set [1] was 99%. In addition, the cytotoxicity at 3 days in data set [2] (setting [6]) was 47%. Moreover, in data set [3] (setting [8]), the cytotoxicity turned out to be 15%.
In the case of `COc1cc(/C=C/c2cc(O)cc(OC)c2CC=C(C)C)ccc1NC=O` [Compound 27, (E)-N-(4-(5-hydroxy-3-methoxy-2-(3-methylbut-2-en-1-yl)styryl)-2-methoxyphenyl)formamide], the EC50 in data set [1] (setting [5]) is 32 nM; in data set [1] (setting [10]), 32 nM; in the data set on human PBMC (setting [7]) it was 5000 nM; in data set [4] (setting [12]) it was 4350 nM; in data set [4] (setting [9]), 4350 nM. Further, the Emax in data set [1] stood at 100%. Moreover, in data set [1], the “Max Eff.: CCL2 (1280)” value is given as 100%. In data set [2] (setting [6]), the cytotoxicity at 3 days was found to be 52%. Besides, in data set [3] (setting [11]), the cytotoxicity is 52%.
On to `CCOc1cc(O)cc(/C=C/c2ccc(NC=O)c(OC)c2)c1CC=C(C)C` [Compound 28, (E)-N-(4-(3-Ethoxy-5-hydroxy-2-(3-methylbut-2-en-1-yl)styryl)-2-methoxyphenyl)formamide], for which, in data set [1], the “reduction of CCL2 release, in words” value is given as “medium potency reduction of CCL2 release”. In addition, the half-maximal effective concentration (EC50) in data set [1] (setting [5]) is 40 nM; in data set [1] (setting [10]), 40 nM; in the data set with human PBMC (PBMC IL-17 assay, read-out: EC50, cell viability), 659 nM; with human PBMC (setting [7]), 659 nM; in data set [4] (setting [12]), 2360 nM; in data set [4] (setting [9]) it was 2360 nM. Also, the Emax in data set [1] is 100%. Moreover, the “Max Eff.: CCL2 (1280)” value in data set [1] turned out to be 100%. The cytotoxicity at 3 days in data set [2] (PBMC IL-17 assay, read-out: maximum reduction of cell viability) turned out to be 54%. In addition, the cytotoxicity in data set [3] (setting [11]) worked out at 60%.
On to `CCOc1cc(O)cc(/C=C/c2ccc(O)c(OC)c2)c1CC=C(C)C` [Compound 8, (E)-3-Ethoxy-5-(4-hydroxy-3-methoxystyryl)-4-(3-methylbut-2-en-1-yl)phenol], for which the EC50 in data set [1] (setting [5]) was 50 nM; with human PBMC (setting [7]), 582 nM; in data set [4] (setting [9]) it was 5000 nM. Further, in data set [1], the “Max Eff.: CCL2 (1280)” value came to 102%. Further, in data set [2] (setting [6]), the cytotoxicity at 3 days is 57%. Moreover, the cytotoxicity in data set [3] (setting [8]) stood at 46%.
